The source made the active and inactive calls. No cut-off for these calls is given here.
Legend:
HepG2 = assay: Phototoxicity against human HepG2 cells assessed as inhibition of cell viability preincubated for 3 hrs followed by photo-irradiation of 54 J/cm2 for 24 hrs by CCK8 assay; assay type: functional, cell-based; settings: HepG2, light or radiation study
[1] = Dark cytotoxicity against human HeLa cells assessed as inhibition of cell viability incubated for 3 hrs by CCK8 assay; assay type: toxicity, cell-based
[2] = Dark cytotoxicity against human HepG2 cells assessed as inhibition of cell viability incubated for 3 hrs by CCK8 assay; assay type: toxicity, cell-based
HeLa [3] = assay: Phototoxicity against human HeLa cells assessed as inhibition of cell viability preincubated for 3 hrs followed by photo-irradiation of 54 J/cm2 for 24 hrs by CCK8 assay; assay type: functional, cell-based; settings: light or radiation study
HeLa [4] = assay: Antitumor activity against human HeLa cells xenografted in nude BALB/c nu/nu mouse assessed as decrease in tumor growth at 2.5 umol/kg, iv with light irradiation of 30 J/cm2 for 1 hr measured after 24 hrs; assay type: functional, organism-based; settings: dose 2.5 µmol/kg, time 25.0 hrs

Row | Structure (SMILES) | IC50 (HepG2) | IC50 at 3 h [1] | IC50 at 3 h [2] | IC50 (HeLa [3]) | Activity (HeLa [4])
1 | COc1ccc(-c2c(I)c(-c3ccccn3)c3n2[B-](F)(F)[N+]2=C4C(=C(c5ccccc5)C2=N3)CCc2cc(OC)ccc24)cc1 | 0.0072 µM | 17.9 µM | > 50 µM | 0.0121 µM | –
2 | COc1ccc(-c2c(I)c(-c3cc[n+](C)cc3)c3n2[B-](F)(F)[N+]2=C4C(=C(c5ccccc5)C2=N3)CCc2cc(OC)ccc24)cc1 | – | 3.3 µM | – | 0.129 µM | –
3 | COc1ccc(-c2c(I)c(-c3cccc[n+]3C)c3n2[B-](F)(F)[N+]2=C4C(=C(c5ccccc5)C2=N3)CCc2cc(OC)ccc24)cc1 | – | 6.1 µM | – | 0.118 µM | –
4 | COc1ccc(C2=[N+]3C(=Nc4c(-c5ccccc5)c(Br)c(-c5ccc(OC)cc5)n4[B-]3(F)F)C(c3ccccc3)=C2Br)cc1 | – | 41.7 µM | – | 0.0642 µM | –
5 | C=Cc1c(C)c2cc3nc(c(CC(=O)O)c4[nH]c(cc5nc(cc1[nH]2)C(C)=C5CC)c(C)c4C(=O)O)[C@@H](CCC(=O)O)[C@@H]3C [CHLORIN E6] | – | > 50 µM | > 50 µM | – | inactive
6 | COc1ccc(C2=[N+]3C(=Nc4c(-c5cccnc5)c(I)c(-c5ccc(OC)cc5)n4[B-]3(F)F)C(c3ccccc3)=C2)cc1 | – | 17.1 µM | – | 0.0429 µM | –
7 | COc1ccc(C2=[N+]3C(=Nc4c(-c5ccncc5)c(I)c(-c5ccc(OC)cc5)n4[B-]3(F)F)C(c3ccccc3)=C2)cc1 | – | 20.6 µM | – | 0.0501 µM | –
8 | COc1ccc(C2=[N+]3C(=Nc4c(-c5ccc[n+](C)c5)c(I)c(-c5ccc(OC)cc5)n4[B-]3(F)F)C(c3ccccc3)=C2)cc1 | – | 11.2 µM | – | 0.214 µM | –

— ChEMBL document CHEMBL5579882, “Synthesis and Photodynamic Activities of Pyridine- or Pyridinium-Substituted Aza-BODIPY Photosensitizers” (J Med Chem, 2024)
